Laboratory results published in US20070093520A1, “Method of treatment of diarrhea-predominant irritable bowel syndrome in a subject” (priority 2005, published 2007).

Tested on: diarrhea-predominant IBS subjects
Experiment: 3007 Study: open-label 52-week safety study, adverse events and withdrawals
Details: P/C group

For Cc1nccn1C[C@H]1CCc2c(c3cccc4c3n2CCC4)C1=O [cilansetron, (R)-(−)-4,5,6,8,9,10-hexahydro-10-[(2-methyl-1H-imidazol-1-yl)methyl]-11H-pyrido-[3,2,1-jk]-carbazol-11-one], the “TEAE: Dyspnoea NOS” value was 1 (<1%) n (%), the “TEAE: Dysuria” value was 0 n (%) and the “TEAE: Ear Disorders NEC” value was 1 (<1%) n (%). For the same compound, the “TEAE: Ear Pain” value was 1 (<1%) n (%), the “TEAE: Ear and Labyrinth Disorders” value was 4 (1%) n (%) and the “TEAE: Eczema” value was 1 (<1%) n (%). The “TEAE: Elevated Cholesterol” value was 3 (1%) n (%), the “TEAE: Endocrine Disorders” value was 2 (<1%) n (%) and the “TEAE: Endometriosis*” value was 0 n (%). The “TEAE: Erythema” value was 0 n (%), the “TEAE: Erythemas” value was 0 n (%) and the “TEAE: External Ear Disorders NEC” value was 0 n (%). For the same compound, the “TEAE: Eye Disorders” value was 5 (2%) n (%), the “TEAE: Fall” value was 2 (<1%) n (%) and the “TEAE: Fatigue” value was 6 (2%) n (%). The “TEAE: Fatigue Aggravated” value was 0 n (%), the “TEAE: Febrile Disorders” value was 1 (<1%) n (%) and the “TEAE: Fibroma NOS” value was 1 (<1%) n (%). The “TEAE: Fluid Intake Increased” value was 1 (<1%) n (%), the “TEAE: Fluid in Middle Ear” value was 0 n (%) and the “TEAE: Flushing” value was 0 n (%). The “TEAE: Food Allergy” value was 1 (<1%) n (%), the “TEAE: General Disorders and Administration Site Conditions” value was 19 (7%) n (%) and the “TEAE: General Signs and Symptoms NEC” value was 3 (1%) n (%). The “TEAE: Gilbert's Syndrome” value was 1 (<1%) n (%), the “TEAE: Glucose Tolerance Impaired” value was 1 (<1%) n (%) and the “TEAE: Glycosuria” value was 1 (<1%) n (%). The “TEAE: Goitre” value was 0 n (%), the “TEAE: Gout” value was 0 n (%) and the “TEAE: Haematoma NOS” value was 0 n (%). The “TEAE: Haematuria” value was 0 n (%), the “TEAE: Hallucination NOS” value was 1 (<1%) n (%) and the “TEAE: Hallucination, Auditory” value was 1 (<1%) n (%). For the same compound, the “TEAE: Hand Fracture” value was 1 (<1%) n (%), the “TEAE: Hearing Losses” value was 0 n (%) and the “TEAE: Hepatitis NOS” value was 0 n (%). The “TEAE: Hepatobiliary Disorders” value was 1 (<1%) n (%), the “TEAE: Hepatobiliary Signs and Symptoms” value was 0 n (%) and the “TEAE: Hepatocellular Damage and Hepatitis NEC” value was 0 n (%). For the same compound, the “TEAE: Hepatosplenomegaly NOS” value was 0 n (%), the “TEAE: Hernia NOS” value was 1 (<1%) n (%) and the “TEAE: Hernia Repair NOS” value was 0 n (%). For the same compound, the “TEAE: Hernia Repairs” value was 0 n (%), the “TEAE: Hernias NEC” value was 1 (<1%) n (%) and the “TEAE: Hot Flushes NOS” value was 0 n (%). The “TEAE: Hypercholesterolaemia” value was 3 (1%) n (%), the “TEAE: Hyperglycaemia NOS” value was 3 (1%) n (%) and the “TEAE: Hyperglycaemic Conditions NEC” value was 4 (1%) n (%). For the same compound, the “TEAE: Hyperkeratoses” value was 1 (<1%) n (%), the “TEAE: Hyperkeratosis” value was 1 (<1%) n (%) and the “TEAE: Hyperlipidaemia NOS” value was 0 n (%). The “TEAE: Hyperlipidaemias NEC” value was 0 n (%), the “TEAE: Hypersensitivity NOS” value was 1 (<1%) n (%) and the “TEAE: Hypertension Aggravated” value was 1 (<1%) n (%). The “TEAE: Hypertension NOS” value was 6 (2%) n (%), the “TEAE: Hypotension NOS” value was 1 (<1%) n (%) and the “TEAE: Immune System Disorders” value was 4 (1%) n (%). For the same compound, the “TEAE: Inborn Errors of Bilirubin Metabolism” value was 1 (<1%) n (%), the “TEAE: Influenza Like Illness” value was 1 (<1%) n (%) and the “TEAE: Ingrowing Nail” value was 1 (<1%) n (%). The “TEAE: Inner Ear Disorders NEC” value was 0 n (%), the “TEAE: Inner Ear Infections and Inflammations” value was 1 (<1%) n (%) and the “TEAE: Inner Ear Signs and Symptoms” value was 2 (<1%) n (%). For the same compound, the “TEAE: Insomnia” value was 0 n (%), the “TEAE: Insomnia Exacerbated” value was 0 n (%) and the “TEAE: Intermenstrual Bleeding*” value was 0 n (%). For the same compound, the “TEAE: Irritability” value was 1 (<1%) n (%), the “TEAE: Ischaemic Coronary Artery Disorders” value was 0 n (%) and the “TEAE: Labyrinthitis NOS” value was 1 (<1%) n (%). The “TEAE: Lacrimal Disorders” value was 0 n (%), the “TEAE: Lactose Intolerance” value was 1 (<1%) n (%) and the “TEAE: Laryngeal and Adjacent Sites Disorders NEC (Excl Infections and Neoplasms)” value was 1 (<1%) n (%). For the same compound, the “TEAE: Laryngitis NOS” value was 1 (<1%) n (%), the “TEAE: Leiomyoma NOS” value was 0 n (%) and the “TEAE: Lethargy” value was 1 (<1%) n (%). For the same compound, the “TEAE: Leukopenia NOS” value was 0 n (%), the “TEAE: Leukopenias NEC” value was 0 n (%) and the “TEAE: Libido Decreased” value was 1 (<1%) n (%). The “TEAE: Lid, Lash and Lacrimal Structural Disorders (Excl Congenital)” value was 0 n (%), the “TEAE: Lipid Metabolism Disorder NOS” value was 0 n (%) and the “TEAE: Lipid Metabolism and Deposit Disorders NEC” value was 0 n (%). The “TEAE: Lipoma NOS” value was 0 n (%), the “TEAE: Lower Respiratory Tract Signs and Symptoms” value was 1 (<1%) n (%) and the “TEAE: Lymphadenopathy” value was 1 (<1%) n (%). The “TEAE: Lymphangitis and Lymphatic Disorders NEC” value was 1 (<1%) n (%), the “TEAE: Meniere's Disease” value was 0 n (%) and the “TEAE: Menorrhagia*” value was 1 (<1%) n (%). The “TEAE: Menstruation Irregular*” value was 1 (<1%) n (%), the “TEAE: Menstruation and Uterine Bleeding NEC*” value was 1 (<1%) n (%) and the “TEAE: Menstruation with Decreased Bleeding*” value was 0 n (%). The “TEAE: Menstruation with Increased Bleeding*” value was 1 (<1%) n (%), the “TEAE: Mental Disorders NEC” value was 1 (<1%) n (%) and the “TEAE: Mental Status Changes” value was 1 (<1%) n (%). For the same compound, the “TEAE: Metabolism and Nutrition Disorders” value was 10 (4%) n (%), the “TEAE: Middle Ear Disorders NEC” value was 0 n (%) and the “TEAE: Motion Sickness” value was 1 (<1%) n (%). The “TEAE: Myocardial Infarction” value was 0 n (%), the “TEAE: Nail and Nail Bed Conditions (Excl Infections and Infestations)” value was 1 (<1%) n (%) and the “TEAE: Nasal Congestion and Inflammations” value was 1 (<1%) n (%). For the same compound, the “TEAE: Neoplasms Benign Site Unspecified NEC” value was 1 (<1%) n (%), the “TEAE: Neoplasms Benign, Malignant and Unspecified (Incl Cysts and Polyps)” value was 6 (2%) n (%) and the “TEAE: Normal Pregnancy, Labour and Delivery*” value was 0 n (%). For the same compound, the “TEAE: Ocular Disorders NEC” value was 1 (<1%) n (%), the “TEAE: Ocular Nerve and Muscle Disorders” value was 2 (<1%) n (%) and the “TEAE: Oedema NEC” value was 3 (1%) n (%). For the same compound, the “TEAE: Oedema NOS” value was 1 (<1%) n (%), the “TEAE: Oedema Peripheral” value was 2 (<1%) n (%) and the “TEAE: Ovarian Cancer NOS*” value was 0 n (%). The “TEAE: Ovarian Cystadenofibroma*” value was 1 (<1%) n (%), the “TEAE: Ovarian Neoplasms Benign*” value was 1 (<1%) n (%) and the “TEAE: Ovarian Neoplasms Malignant (Excl Germ Cell)*” value was 0 n (%). For the same compound, the “TEAE: Pain NOS” value was 1 (<1%) n (%), the “TEAE: Pain and Discomfort NEC” value was 7 (3%) n (%) and the “TEAE: Palpitations” value was 2 (<1%) n (%). The “TEAE: Panic Attack” value was 1 (<1%) n (%), the “TEAE: Panic Symptoms” value was 1 (<1%) n (%) and the “TEAE: Papulosquamous Conditions” value was 1 (<1%) n (%). The “TEAE: Paranasal Sinus Disorders (Excl Infections and Neoplasms)” value was 3 (1%) n (%), the “TEAE: Paranasal Sinus Hypersecretion” value was 0 n (%) and the “TEAE: Partial Vision Loss” value was 1 (<1%) n (%). For the same compound, the “TEAE: Pelvic Pain NOS” value was 2 (<1%) n (%), the “TEAE: Penile Disorders NEC (Excl Erection and Ejaculation)*” value was 1 (1%) n (%) and the “TEAE: Penile Haemorrhage*” value was 1 (1%) n (%). The “TEAE: Perception Disturbances” value was 1 (<1%) n (%), the “TEAE: Peripheral Embolism NOS” value was 1 (<1%) n (%) and the “TEAE: Peripheral Embolism and Thrombosis” value was 1 (<1%) n (%). The “TEAE: Peripheral Vascular Disorders NEC” value was 0 n (%), the “TEAE: Pharyngitis” value was 3 (1%) n (%) and the “TEAE: Polydipsia” value was 1 (<1%) n (%). For the same compound, the “TEAE: Polyuria” value was 1 (<1%) n (%), the “TEAE: Posterior Capsule Opacification” value was 1 (<1%) n (%) and the “TEAE: Postnasal Drip” value was 1 (<1%) n (%). The “TEAE: Pregnancy NOS*” value was 0 n (%), the “TEAE: Pregnancy, Puerperium and Perinatal Conditions” value was 0 n (%) and the “TEAE: Premenopause*” value was 1 (<1%) n (%). The “TEAE: Premenstrual Syndrome*” value was 0 n (%), the “TEAE: Productive Cough” value was 0 n (%) and the “TEAE: Prostate and Seminal Vesicles Infections and Inflammations*” value was 1 (1%) n (%). The “TEAE: Prostatitis*” value was 1 (1%) n (%), the “TEAE: Proteinuria” value was 0 n (%) and the “TEAE: Pruritus NEC” value was 1 (<1%) n (%). For the same compound, the “TEAE: Pruritus NOS” value was 1 (<1%) n (%), the “TEAE: Psoriasis” value was 1 (<1%) n (%) and the “TEAE: Psychiatric Disorders” value was 17 (6%) n (%). For the same compound, the “TEAE: Psychotic Disorder NEC” value was 1 (<1%) n (%), the “TEAE: Psychotic Disorder NOS” value was 1 (<1%) n (%) and the “TEAE: Purine Metabolism Disorders NEC” value was 0 n (%). The “TEAE: Pyrexia” value was 1 (<1%) n (%), the “TEAE: Rash Macular” value was 2 (<1%) n (%) and the “TEAE: Rash NOS” value was 2 (<1%) n (%). The “TEAE: Rashes, Eruptions and Exanthems NEC” value was 4 (1%) n (%), the “TEAE: Rate and Rhythm Disorders NEC” value was 2 (<1%) n (%) and the “TEAE: Refractive Errors NOS” value was 0 n (%). The “TEAE: Refractive and Accommodative Disorders” value was 0 n (%), the “TEAE: Renal Lithiasis” value was 0 n (%) and the “TEAE: Renal and Urinary Disorders” value was 4 (1%) n (%). For the same compound, the “TEAE: Reproductive System and Breast Disorders” value was 12 (4%) n (%), the “TEAE: Reproductive Tract Signs and Symptoms NEC” value was 2 (<1%) n (%) and the “TEAE: Respiratory Tract Congestion” value was 1 (<1%) n (%). The “TEAE: Respiratory Tract Disorders NEC” value was 1 (<1%) n (%), the “TEAE: Respiratory, Thoracic and Mediastinal Disorders” value was 18 (6%) n (%) and the “TEAE: Retinal Detachment” value was 0 n (%). For the same compound, the “TEAE: Retinal Structural Change, Deposit and Degeneration” value was 0 n (%), the “TEAE: Rhinitis Allergic NOS” value was 1 (<1%) n (%) and the “TEAE: Rhinitis NOS” value was 0 n (%). For the same compound, the “TEAE: Rhinitis Seasonal” value was 0 n (%), the “TEAE: Rosacea” value was 0 n (%) and the “TEAE: Rosaceas” value was 0 n (%). The “TEAE: Seasonal Allergy” value was 1 (<1%) n (%).
